Reference: patent publication EP4603105A1, “PHARMACEUTICAL COMPOSITION CONTAINING CYCLIC COMPOUND HAVING SELECTIVE KRAS INHIBITORY EFFECT AGAINST HRAS AND NRAS” (CHUGAI SEIYAKU KABUSHIKI KAISHA, priority 2022, dated 2024)
*1 amine or outer side, *2 acyl side, *3 side chain or, on linkers, in order; H or OH if unused. Where a SMILES comes first, the peptide text is derived from it. Bridges are numbered along the chain shown (N, C = ends). [ ]: non-standard residue; d: D form. The star is where a group is joined. hPhe(3,5-F2-4-CF3) = N[C@@H](CCc1cc(F)c(C(F)(F)F)c(F)c1)C(=O)O; hPhe(3-Cl-4-CF3) = N[C@@H](CCc1ccc(C(F)(F)F)c(Cl)c1)C(=O)O; NPrPhe(4-CF3) = CCCN[C@@H](Cc1ccc(C(F)(F)F)cc1)C(=O)O; X50 = C=CCN([C@@H](Cc1ccc(C)cc1)C(=O)[*:2])[*:1]; NMeGly(cPent) = CN[C@H](C(=O)O)C1CCCC1; NMeD = CN[C@@H](CC(=O)O)C(=O)O; Ac4c(3-oxa) = NC1(C(=O)O)COC1; NMeL = CN[C@@H](CC(C)C)C(=O)O; X10 = N#CCN(CC(=O)[*:2])[*:1]; NMeS = CN[C@@H](CO)C(=O)O; Morpholide = C1CN(*)CCO1; Ac5c = NC1(C(=O)O)CCCC1; Sar = CNCC(=O)O

Columns and labels:
[1] = molecular target: GDP-bound NRAS wild-type protein (Homo sapiens, UniProt P01111); assay: Binding to NRAS by surface plasmon resonance (SPR), KD and KD ratio to KRAS
In short: (§1)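 Running buffer contained 10 µM GDP and 10 mM MgCl2 to keep RAS in the GDP state, with 4% DMSO at pH 7.4. Compounds were flowed at 100 µL/min in 75 s steps of rising concentration over captured biotin-Avi RAS at 30°C. Sensorgrams were fitted 1:1 for KD.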

HRAS wild-type protein = HRAS wild-type protein (Homo sapiens, UniProt P01112); assay: Binding to HRAS by surface plasmon resonance (SPR), KD and KD ratio to KRAS
In short: as §1

[2] = test system: human lung cancer strain NCI-H441; assay type: cell-based
In short: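 Step one: dispense the test compound in serial DMSO dilutions. Step three: add the reagent and measure […].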

[3] = ratio of KD for GDP-bound NRAS wild-type protein to KD for KRAS
[4] = ratio of KD for HRAS wild-type protein to KD for KRAS
[5] = ratio of KD value for GDP-bound NRAS wild-type protein to KD value for KRAS (SPR)
[6] = ratio of KD value for HRAS wild-type protein to KD value for KRAS (SPR)
[7] = ratio of the KD value with respect to GDP-bound NRAS wild-type protein to the KD value with respect to KRAS
[8] = ratio of the KD value with respect to HRAS wild-type protein to the KD value with respect to KRAS

Sequence of HRAS wild-type protein (P01112 whole entry): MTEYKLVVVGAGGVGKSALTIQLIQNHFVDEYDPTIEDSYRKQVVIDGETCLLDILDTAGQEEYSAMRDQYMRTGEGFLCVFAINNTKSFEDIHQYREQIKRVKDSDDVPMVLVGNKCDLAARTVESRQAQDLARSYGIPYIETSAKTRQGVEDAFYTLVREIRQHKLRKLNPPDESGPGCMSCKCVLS
Sequence of GDP-bound NRAS wild-type protein (P01111 whole entry): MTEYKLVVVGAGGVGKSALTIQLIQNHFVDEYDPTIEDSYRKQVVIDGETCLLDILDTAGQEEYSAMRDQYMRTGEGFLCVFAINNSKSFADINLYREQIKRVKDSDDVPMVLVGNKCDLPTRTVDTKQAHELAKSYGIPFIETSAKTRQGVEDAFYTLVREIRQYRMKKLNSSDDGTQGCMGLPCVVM

Row | Compound | IC50 [2] [nM] | NRAS /KRAS [1, 3] | HRAS /KRAS (HRAS wild-type protein; [4]) | other results
1 | CCO[C@@H]1C[C@H]2C(=O)NC3(CCCC3)C(=O)N(C)[C@@H](C3CCCC3)C(=O)N(C)[C@H](C(=O)N3CCOCC3)CC(=O)N(C)[C@@H](CC)C(=O)N[C@@H]([C@@H](C)CC)C(=O)N(C)CC(=O)N(C)[C@H]3CC(C)=CCN(C3=O)[C@@H](Cc3ccc(C(F)(F)F)cc3)C(=O)N(C)CC(=O)N[C@@H](CCc3cc(F)c(C(F)(F)F)c(F)c3)C(=O)N2C1 [PP1043] | 387 | C (A compound having a KD ratio of 0.1 or more and less than 3 is denoted as C) | C (A compound having a KD ratio of 0.1 or more and less than 3 is denoted as C) | 
2 | CCCN1C(=O)CN(C)C(=O)CN(C)C(=O)[C@H]([C@@H](C)CC)NC(=O)[C@H](CC(C)C)N(C)C(=O)C[C@@H](C(=O)N2CCOCC2)N(C)C(=O)[C@H](C2CCCC2)N(C)C(=O)C2(CCCC2)NC(=O)[C@H](COC)N(C)C(=O)[C@H](CCc2ccc(C(F)(F)F)c(Cl)c2)NC(=O)CN(C)C(=O)[C@@H]1Cc1ccc(C(F)(F)F)cc1 [PP1920] ([NMeL]I[Sar][Sar][NPrPhe(4-CF3)][Sar][hPhe(3-Cl-4-CF3)][NMeS](Me)[Ac5c][NMeGly(cPent)][NMeD]-Morpholide; lactam N-11) | 32.4 |  |  | NRAS /KRAS [1, 7]: B (a compound having 3 or more and less than 10 is denoted as B); HRAS /KRAS (HRAS wild-type protein; [8]): C (A compound having a KD ratio of 0.1 or more and less than 3 is denoted as C)
3 | CCCN1C(=O)CN(C)C(=O)CN(C)C(=O)[C@H]([C@@H](C)CC)NC(=O)[C@H](CC(C)C)N(C)C(=O)C[C@@H](C(=O)N(C)C)NC(=O)[C@H](C2CCCC2)N(C)C(=O)C2(CCCC2)NC(=O)[C@@H]2CCCN2C(=O)[C@H](CCc2ccc(C(F)(F)F)c(Cl)c2)NC(=O)CN(C)C(=O)[C@@H]1Cc1ccc(C(F)(F)F)cc1 [PP0355] ([NMeL]I[Sar][Sar][NPrPhe(4-CF3)][Sar][hPhe(3-Cl-4-CF3)]P[Ac5c][NMeGly(cPent)]D-NMe2; lactam N-11) | 48.2 | B (a compound having 3 or more and less than 10 is denoted as B) | B (a compound having 3 or more and less than 10 is denoted as B) | 
4 | CCO[C@@H]1C[C@H]2C(=O)NC3(CCC3)C(=O)N(C)[C@@H](C3CCCC3)C(=O)N(CCC3CCCC3)[C@H](C(=O)N(C)C)CC(=O)N(C)[C@@H](CC)C(=O)N[C@@H]([C@@H](C)CC)C(=O)N(C)CC(=O)N(C)[C@H]3C/C=C\CCN(C3=O)[C@@H](Cc3ccc(C(F)(F)F)cc3)C(=O)N(C)CC(=O)N[C@@H](CCc3cc(F)c(C(F)(F)F)c(F)c3)C(=O)N2C1 [PP0982] | 372 | AA (a compound having 20 or more is denoted as AA) | A (a compound having 10 or more and less than 20 is denoted as A) | 
5 | CCCN1C(=O)CN(C)C(=O)CN(C)C(=O)[C@H]([C@@H](C)CC)NC(=O)[C@H](CC(C)C)N(C)C(=O)C[C@@H](C(=O)N(C)C)N(C)C(=O)[C@H](C2CCCC2)N(C)C(=O)C2(COC2)NC(=O)[C@@H]2CCCN2C(=O)[C@H](CCc2cc(F)c(C(F)(F)F)c(F)c2)NC(=O)CN(C)C(=O)[C@@H]1Cc1ccc(C(F)(F)F)cc1 [PP0744] ([NMeL]I[Sar][Sar][NPrPhe(4-CF3)][Sar][hPhe(3,5-F2-4-CF3)]P[Ac4c(3-oxa)][NMeGly(cPent)][NMeD]-NMe2; lactam N-11) | 57 |  |  | NRAS /KRAS [1, 7]: B (a compound having 3 or more and less than 10 is denoted as B); HRAS /KRAS (HRAS wild-type protein; [8]): B (a compound having 3 or more and less than 10 is denoted as B)
6 | CCO[C@@H]1C[C@H]2C(=O)NC3(CCC3)C(=O)N(C)[C@@H](C3CCCC3)C(=O)N(C)[C@H](C(=O)N(C)C)CC(=O)N(C)[C@@H](CC3CCCC3)C(=O)N[C@@H]([C@@H](C)CC)C(=O)N(C)CC(=O)N(C)[C@H]3C/C=C\CCN(C3=O)[C@@H](Cc3ccc(C)cc3)C(=O)N(C)CC(=O)N[C@@H](CCc3cc(C)c(C(F)F)c(F)c3)C(=O)N2C1 [PP2676] | 60.8 | A (a compound having 10 or more and less than 20 is denoted as A) | A (a compound having 10 or more and less than 20 is denoted as A) | 

Now those with a lower IC50 [2], led by results:

Row | IC50 [2] [nM] | Compound | NRAS /KRAS [1, 3] | HRAS /KRAS (HRAS wild-type protein; [4]) | other results
7 | 13.2 | CCO[C@@H]1C[C@H]2C(=O)NC3(CCC3)C(=O)N(C)[C@@H](C3CCCC3)C(=O)N(C)[C@H](C(=O)N(C)CCOC)CC(=O)N(C)[C@@H](CC)C(=O)N[C@@H]([C@@H](C)CC)C(=O)N(C)CC(=O)N(C)[C@H]3C/C=C\CCN(C3=O)[C@@H](Cc3ccc(C(F)(F)F)cc3)C(=O)N(C)CC(=O)N[C@@H](CCc3cc(F)c(C(F)(F)F)c(F)c3)C(=O)N2C1 [PP1316] |  |  | NRAS /KRAS ([1]; ratio of KD with respect to GDP-bound NRAS wild-type protein to KD with respect to KRAS): A (a compound having 10 or more and less than 20 is denoted as A); HRAS /KRAS (HRAS wild-type protein; ratio of KD with respect to HRAS wild-type protein to KD with respect to KRAS): A (a compound having 10 or more and less than 20 is denoted as A)
8 | 12.9 | CCC[C@H]1C(=O)N[C@@H]([C@@H](C)CC)C(=O)N(C)CC(=O)N(C)[C@H]2C/C=C\CCN(C2=O)[C@@H](Cc2ccc(C(F)(F)F)cc2)C(=O)N(C)CC(=O)N[C@@H](CCc2cc(F)c(C(F)(F)F)c(F)c2)C(=O)N2C[C@H](OCC)C[C@H]2C(=O)NC2(CCC2)C(=O)N(C)[C@@H](C2CCCC2)C(=O)N(CCC)[C@H](C(=O)N(C)C)CC(=O)N1C [PP1769] |  |  | NRAS /KRAS [1, 5]: A (a compound having 10 or more and less than 20 is denoted as A); HRAS /KRAS (HRAS wild-type protein; [6]): A (a compound having 10 or more and less than 20 is denoted as A)
9 | 5.6 | CCCN1C(=O)CN(C)C(=O)CN(CC#N)C(=O)[C@H]([C@@H](C)CC)NC(=O)[C@H](CC(C)C)N(C)C(=O)C[C@@H](C(=O)N2CCOCC2)N(C)C(=O)[C@H](C2CCCC2)N(C)C(=O)C2(CCCC2)NC(=O)[C@@H]2CCCN2C(=O)[C@H](CCc2ccc(C(F)(F)F)c(Cl)c2)NC(=O)CN(C)C(=O)[C@@H]1Cc1ccc(C(F)(F)F)cc1 [PP0254] ([NMeL]I[X10][Sar][NPrPhe(4-CF3)][Sar][hPhe(3-Cl-4-CF3)]P[Ac5c][NMeGly(cPent)][NMeD]-Morpholide; lactam N-11) | B (a compound having 3 or more and less than 10 is denoted as B) | C (A compound having a KD ratio of 0.1 or more and less than 3 is denoted as C) | 
10 | 16.7 | CC[C@H](C)[C@@H]1NC(=O)[C@H](CC(C)C)N(C)C(=O)C[C@@H](C(=O)N2CCOCC2)N(C)C(=O)[C@H](C2CCCC2)N(C)C(=O)C2(CCCC2)NC(=O)[C@@H]2CCCN2C(=O)[C@H](CCc2ccc(C(F)(F)F)c(Cl)c2)NC(=O)CN(C)C(=O)[C@H](Cc2ccc(OC)cc2)N2CCCC[C@@H](C2=O)N(C)C(=O)CN(C)C1=O [PP0534] |  |  | NRAS /KRAS [1, 7]: B (a compound having 3 or more and less than 10 is denoted as B); HRAS /KRAS (HRAS wild-type protein; [8]): B (a compound having 3 or more and less than 10 is denoted as B)
11 | 24.3 | C=CCN1C(=O)CN(C)C(=O)CN(C)C(=O)[C@H]([C@@H](C)CC)NC(=O)[C@H](CC(C)C)N(C)C(=O)C[C@@H](C(=O)N2CCOCC2)N(C)C(=O)[C@H](C2CCCC2)N(C)C(=O)C2(CCCC2)NC(=O)[C@@H]2CCCN2C(=O)[C@H](CCc2ccc(C(F)(F)F)c(Cl)c2)NC(=O)CN(C)C(=O)[C@@H]1Cc1ccc(C)cc1 [PP0100] ([NMeL]I[Sar][Sar][X50][Sar][hPhe(3-Cl-4-CF3)]P[Ac5c][NMeGly(cPent)][NMeD]-Morpholide; lactam N-11) | B (a compound having 3 or more and less than 10 is denoted as B) | C (A compound having a KD ratio of 0.1 or more and less than 3 is denoted as C) | 
12 | 3.1 | CCCO[C@@H]1C[C@H]2C(=O)NC3(CC(C)(C)C3)C(=O)N(C)[C@@H](C(CC)CC)C(=O)N(C)[C@H](C(=O)N(C)C)CC(=O)N(C)[C@H]3CCCCc4ccc(cc4)C[C@@H](C(=O)N(C)CC(=O)N[C@@H](CCc4ccc(C(F)(F)F)c(OC)c4)C(=O)N2C1)N1CC/C=C\C[C@@H](C1=O)N(C)C(=O)CN(C)C(=O)[C@H]([C@@H](C)CC)NC3=O [PP3038] | A (a compound having 10 or more and less than 20 is denoted as A) | A (a compound having 10 or more and less than 20 is denoted as A) | 
13 | 5.4 | CCO[C@@H]1C[C@H]2C(=O)NC3(CCC3)C(=O)N(C)[C@@H](C3CCCC3)C(=O)N(C)[C@H](C(=O)N(C)C)CC(=O)N(C)[C@@H](CC(C)C)C(=O)N[C@@H]([C@@H](C)CC)C(=O)N(C)CC(=O)N(C)[C@H]3C/C=C\CCN(C3=O)[C@@H](Cc3ccc(C(F)(F)F)cc3)C(=O)N(C)CC(=O)N[C@@H](CCc3cc(F)c(C(F)(F)F)c(F)c3)C(=O)N2C1 [PP1107] | A (a compound having 10 or more and less than 20 is denoted as A) | A (a compound having 10 or more and less than 20 is denoted as A) | 
14 | 3.1 | CCO[C@@H]1C[C@H]2C(=O)NC3(CC(C)(C)C3)C(=O)N(C)[C@@H](C3CCCC3)C(=O)N(C)[C@H](C(=O)N(C)CC)CC(=O)N(C)[C@@H](COC)C(=O)N[C@@H]([C@@H](C)CC)C(=O)N(C)CC(=O)N(C)[C@H]3C/C=C\CCN(C3=O)[C@@H](Cc3ccc(C(F)(F)F)cc3)C(=O)N(C)CC(=O)N[C@@H](CCc3ccc(C(F)(F)F)c(OC)c3)C(=O)N2C1 [PP1679] |  |  | NRAS /KRAS [1, 5]: A (a compound having 10 or more and less than 20 is denoted as A); HRAS /KRAS (HRAS wild-type protein; [6]): A (a compound having 10 or more and less than 20 is denoted as A)
